We go through two molecules from patent US12486260B2, “Indazolyl-isoxazole derivatives for the treatment of diseases such as cancer” (Merck Patent GmbH, priority 2019, dated 2025).

Assay [1] concerns the target T1, c-Kit(V654A) (Homo sapiens, UniProt P10721, V654A).
T1 construct: amino acids 544-end; GST (N)
Kind of assay: c-Kit(V654A) kinase assay (33P-ATP filter binding). It counts as biochemical. The conditions noted are these: Table 2, isoxazole vs corresponding triazole derivatives; 200 μM ATP, 40 minutes; read-out: Inhibition (IC50) of c-Kit (V654A). The procedure:
• HPLC/MS: Agilent 1200/6100 • eluent A: water+0.05% formic acid • eluent B: acetonitrile+0.04% formic acid • column: Chromolith HR RP-18e; 50-4.6 mm • flow rate: 3.3 ml/min • gradient: 0%→100% B: 0.0→2.0 min 100% B: 2.0→2.5 min • UV detection: 220 nm • MS detection: 65-800 amu positive HPLC/MS Conditions B: • HPLC/MS: Agilent 1200/6100 • eluent A: water+0.05% formic acid • eluent B: acetonitrile+0.04% formic acid • column: Kinetex XB-C18; 2.6 μm; 50-4.6 mm • flow rate: 2.5 ml/min • gradient: 0%→100% B: 0.0→1.4 min 100% B: 1.4→2.0 min • UV detection: 220 nm • MS detection: 65-800 amu positive UPLC/MS Conditions: • UPLC/MS: Waters Acquity/SQD • eluent A: water+0.05% formic acid • eluent B: acetonitrile+0.04% formic acid • column: Kinetex XB-C18; 1.7 μm; 50-2.1 mm • flow rate: 0.9 ml/min • gradient: 2%→100% B: 0.0→1.0 min 100% B: 1.0→1.3 min • UV detection: 220 nm/254 nm/MaxPlot/TotalPlot • MS detection: 61-800 amu positive Assays c-Kit(V654A) Assay:
c-Kit(V654A) (N-terminal GST-tagged, recombinant human c-Kit, amino acids 544-end containing the V654A mutation) is incubated with 8 mM MOPS pH 7.0, 0.2 mM EDTA, 250 μM GGMEDIYEFMGGKKK, 10 mM MgAcetate and [gamma-33P-ATP] (specific activity approx. 500 cpm/pmol, concentration 200 μM). The reaction is initiated by the addition of the MgATP mix. […]

The target of assay [2] is T2, mutant cKIT (Δ560-576 and V654A) in GIST430/654 cell line (Homo sapiens, UniProt P10721, DEL560-576/V654A).
T2 construct: GIST430/654 cell line expressing mutated constitutively active cKIT receptor tyrosine kinase; endogenous in cells; host or cells: GIST430/654
T2 sequence (P10721 with tags, fused parts or gaps DEL560-576/V654A): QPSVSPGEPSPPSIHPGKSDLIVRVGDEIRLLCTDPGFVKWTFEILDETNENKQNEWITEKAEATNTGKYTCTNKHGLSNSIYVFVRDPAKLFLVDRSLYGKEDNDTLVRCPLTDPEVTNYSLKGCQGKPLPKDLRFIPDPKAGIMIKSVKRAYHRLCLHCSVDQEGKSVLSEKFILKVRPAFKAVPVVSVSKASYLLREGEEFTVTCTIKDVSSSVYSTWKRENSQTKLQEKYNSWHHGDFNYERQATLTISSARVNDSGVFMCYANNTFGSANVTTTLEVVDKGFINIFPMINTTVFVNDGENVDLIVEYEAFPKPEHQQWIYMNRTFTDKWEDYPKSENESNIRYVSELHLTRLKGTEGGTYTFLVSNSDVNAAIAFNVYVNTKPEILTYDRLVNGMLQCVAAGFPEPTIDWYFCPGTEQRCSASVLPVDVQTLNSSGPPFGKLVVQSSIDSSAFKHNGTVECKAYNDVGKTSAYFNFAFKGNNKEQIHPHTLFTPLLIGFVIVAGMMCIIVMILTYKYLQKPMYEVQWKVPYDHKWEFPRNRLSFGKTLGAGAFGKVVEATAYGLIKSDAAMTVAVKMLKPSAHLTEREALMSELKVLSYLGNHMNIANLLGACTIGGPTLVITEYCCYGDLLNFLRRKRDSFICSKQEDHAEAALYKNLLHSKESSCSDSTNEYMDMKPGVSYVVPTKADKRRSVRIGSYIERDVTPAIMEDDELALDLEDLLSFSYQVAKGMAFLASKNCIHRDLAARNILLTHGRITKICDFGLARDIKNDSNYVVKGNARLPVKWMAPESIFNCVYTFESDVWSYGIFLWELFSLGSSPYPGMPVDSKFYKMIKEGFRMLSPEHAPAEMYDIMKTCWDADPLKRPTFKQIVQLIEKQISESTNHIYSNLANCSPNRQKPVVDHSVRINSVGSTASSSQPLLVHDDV
Kind of assay: cellular testing of cKIT mutant inhibitors: cKIT autophosphorylation in GIST430/654 cells (Luminex). It counts as cell-based. The conditions noted are these: Table 2, isoxazole vs corresponding triazole derivatives; phospho-Y307-cKIT, 45 min; read-out: Inhibition (IC50) of GIST 430/654. How it is done:
Assay Principle for Cellular Testing of cKIT Mutant Inhibitors
The GIST430/654 cell line expressing mutated constitutively active cKIT receptor tyrosine kinase (Δ560-576 and V654A) was employed for assessing cellular potency of compounds. Cellular activity of mutant cKIT was determined by the degree of cKIT autophosphorylation at tyrosine 307 using a Luminex-based bead assay. GIST430/654 cells were plated with 25,000 cells per well of a 96-well plate in 100 μl medium (85% IMDM/15% FCS supplemented with 100 nM Imatinib). At the following day compounds were added in a serial dilution for 45 min. Then, cells were lysed with 90 μl lysis buffer (20 mM Hepes pH 7.5, 200 mM NaCl, 1.5 mM MgCl2×6H2O, 0.4 mM EDTA, 1% Triton-X-100, 1% Phosphatase-Inhibitor II, 20 mM β-Glycerolphosphat, 0.1% Protease-Inhibitor Cocktail III, 0.01% Benzonase) und lysates were cleared by centrifugation through a 96-well filter plate (0.65 μm). Samples were incubated with Luminex-beads which were coupled with an anti-total cKIT antibody overnight at 4° C. under gentle agitation. […] The amount of phospho-Y307-cKIT was determined in a Luminex 200 instrument measuring 100 events per well within 60 seconds.
Counts from samples treated with compounds were calculated as percent of control from solvent treated (0.3% DMSO) samples. Dose-response curves were fitted and IC50 values were determined using Genedata Screener software.

T1 sequence (P10721 544-976 V654A): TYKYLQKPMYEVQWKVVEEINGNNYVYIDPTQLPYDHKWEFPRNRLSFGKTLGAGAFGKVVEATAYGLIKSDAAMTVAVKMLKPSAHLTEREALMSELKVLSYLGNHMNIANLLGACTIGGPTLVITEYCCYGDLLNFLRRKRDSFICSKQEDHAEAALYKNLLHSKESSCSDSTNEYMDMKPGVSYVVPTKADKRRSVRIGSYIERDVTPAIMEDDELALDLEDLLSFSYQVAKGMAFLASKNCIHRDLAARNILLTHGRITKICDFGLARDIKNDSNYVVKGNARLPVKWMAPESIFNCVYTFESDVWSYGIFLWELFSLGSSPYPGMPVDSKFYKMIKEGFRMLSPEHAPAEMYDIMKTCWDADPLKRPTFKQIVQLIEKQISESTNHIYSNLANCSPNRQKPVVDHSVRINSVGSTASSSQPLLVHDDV

On to `COCCOc1cc2[nH]nc(-c3cn(-c4ccc(C(=O)N5CC(N6CCOCC6)C5)cc4)nn3)c2cc1F`, for which the IC50 in assay [1] was determined as 0.0011 µM; in assay [2] it was 0.61 µM.

For `COCCOc1cc2[nH]nc(-c3cn(-c4ccc(C(=O)N5CC[C@@H]5C(C)(C)O)cc4)nn3)c2cc1F`, the figures for the IC50 in assay [1] and in assay [2] were 0.0051 µM and 0.22 µM, respectively.
